Read-outs that look alike come from different tables or passages of the source.

The conditions of data set [1]: 25°C, I = 0.1 M Me4NCl; ref Lázár et al., [1991]; cited from earlier work.
For data set [2] the following is noted: 25°C, I = 0.1 M Me4NCl; ref Lázár et al., [1991]; cited from earlier work. The source holds these as a separate data set.
For data set [3] the following is noted: 25°C, I = 0.1 M Me4NCl, ref Šimeček et al., [2013], cited from earlier work.
Data set [4] can be described thus: Protonation constants of ligands by pH-potentiometry. The data set is classed as physicochemical. Particulars: 25°C, I = 0.15 M NaCl. The source says: (§1) For determining the protonation constants of DOTPI(Chx)4 and DOTPI three parallel pH-potentiometric titration were made with 0.2 M NaOH in 0.002 M ligand solutions. The stability and protonation constants of the Ca^II and Zn^II complexes formed with DOTPI(Chx)4 and DOTPI ligands have been determined by direct pH-potentiometric titration made at 1:1 and 2:1 metal to ligand concentration ratios. (the concentration of ligands was 0.002 M). For the calculation of the logKML and logKMLHi values, the mL base—pH data used were obtained in the pH range 1.7–12.0.
(§2) For pH measurements and titrations, a Metrohm 785 DMP Titrino titration workstation and a Metrohm-6.0233.100 combined electrode were used. Equilibrium measurements were carried out at a constant ionic strength (0.15 M NaCl) in 6 mL samples at 25°C. The solutions were stirred, and constantly purged with N2. The titrations were performed in a pH range of 1.7–11.7. KH-phthalate (pH = 4.005) and borax (pH = 9.177) buffers were used to calibrate the pH meter. For calculation of [H^+] from measured pH values, the method proposed by Irving et al. was used (Irving et al., [1967]). A 0.01 M HCl solution was titrated with the standardized NaOH solution in the presence of 0.1 M NaCl. Differences between the measured (pHread) and calculated pH (–log[H^+]) values were used to obtain the equilibrium H^+ concentration from the pH values, measured in the titration experiments. For the equilibrium calculations, the stoichiometric water ionic product (pKw) is also needed to calculate [H^+] values in basic conditions. The VNaOH – pHread data pairs of the HCl – NaOH titration obtained in the pH range 10.5–12 have been used to calculate the pKw value (pKw = 13.85). For the calculation of the equilibrium constants the program PSEQUAD (Zekany and Nagypal, [1985]) was used.
(§3) 2. Protonation and complexation equilibria of DOTPI and
(§4) The protonation processes of the DOTPI and DOTPI(Chx)4, ligands have been studied by pH-potentiometry. The protonation constants (logKiH) of ligands are defined according to Eq. (1).
(§5) The stability and protonation constants of DOTPI and DOTPI(Chx)4 complexes with several metal ions were determined by pH-potentiometric and UV/Vis spectrophotometric, methods.
(§6) The stability and protonation constants of the metal complexes formed with the DOTPI and DOTPI(Chx)4, ligands, defined by Eqs. […]
where i = 1, 2, 3…5. The KML and KMHiL values characterizing the formation of DOTPI and DOTPI(Chx)4 complexes of CaII and ZnII have been calculated from the pH-potentiometric titration data obtained at 1:1 metal to ligand concentration ratios. The protonation constants of the complexes Cu(DOTPI) and Cu(DOTPI( Chx)4) were also determined by pH-potentiometric titrations, made at 1:1 metal to ligand concentration ratio. The pH-potentiometric titrations of DOTPI ligand were also performed at 2:1 metal-to-ligand ratio in order to examine the possible formation of dinuclear CaII-, ZnII-, and CuII-DOTPI complexes.
The stability and protonation constants of the dinuclear complexes formed with the DOTPI […]
where i=1 and 2. In calculating the equilibrium constants, the best fit of the mL base – pH data was obtained by assuming the formation of ML, MHL, MH 2L, MH3L, MH4L, MH5L, M2L, M2LH, and M2LH2 complexes with DOTPI and DOTPI(Chx)4.
(also on this page, place not known: ]H][LH[ ]LH[K 1i iH + − = DOTPI( Chx)4 f ormed ]L][M[ ]ML[K ML = ]H][LMH[ ]LMH[K 1i i LMHi + − = i 3 …5. Ca II Zn II -potentiometric pH - metal -to-ligand Cu II-DOTPI ]M][ML[ ]LM[K 2 LM2 = ]H][LHM[ ]LHM[K 1i2 i2 LHM i2 + − = pH MH 4L,) […]

Data set [5] in a line: Stability and protonation constants of Ca^II complexes (pH-potentiometry). It counts as physicochemical. Particulars: 25°C, 0.15 M NaCl.
Text: as §1, §2, §3, §4, §5, §6
where i = 1, 2, 3…5. The KML and KMHiL values characterizing the formation of DOTPI and DOTPI(Chx)4 complexes of CaII and ZnII have been calculated from the pH-potentiometric titration data obtained at 1:1 metal to ligand concentration ratios. The protonation constants of the complexes Cu(DOTPI) and Cu(DOTPI( Chx)4) were also determined by pH-potentiometric titrations, made at 1:1 metal to ligand concentration ratio. […]

The conditions of data set [6]: 25°C, I = 0.1 M Me4NCl; ref Lázár et al., [1991]; cited from earlier work. This is another data set of the same source.
[7] abbreviates: distant carboxylate groups of DOTPI not considered.

For `O=C(O)CCP(=O)(O)CN1CCN(CP(=O)(O)CCC(=O)O)CCN(CP(=O)(O)CCC(=O)O)CCN(CP(=O)(O)CCC(=O)O)CC1` [DOTPI, 1,4,7,10-tetraazacyclododecane-1,4,7,10-tetrakis[methylene(2-carboxyethylphosphinic acid)]], the “logKML, ZnL” value in data set [1] is reported as 18.57. Further, the “logKML, CaL” value in data set [2] was 12.48. Moreover, the “Σlog KiH (total basicity)” value in data set [3] (setting [7]) was 24.91. In data set [3], the “log K1H” value is listed as 11.58, the “log K2H” value is reported as 8.90, the “log K3H” value is listed as 5.65 and the “log K4H” value is on record as 4.98. For the same molecule, in data set [3], the “log K5H” value was 4.61, the “log K6H” value is recorded as 4.07, the “log K7H” value is listed as 3.12 and the “log K8H” value is on record as 1.31. In data set [4], the “log K1H” value was 10.27 (1), the “log K2H” value is 8.42 (1), the “log K3H” value was 5.45 (2) and the “log K4H” value is given as 4.78 (2). Besides, in data set [4], the “log K5H” value is reported as 4.42 (2), the “log K6H” value is listed as 3.88 (2), the “log K7H” value is reported as 2.83 (2) and the “log K8H” value is recorded as 1.17 (2). Besides, the “Σlog KiH (total basicity)” value in data set [4] (setting [7]) worked out at 22.69. Besides, in data set [5], the “protonation constant CaH2L” value is 5.04 (9), the “protonation constant CaHL” value is given as 6.49 (4) and the “stability constant of dinuclear complex Ca2L” value was 2.85 (5). The “logKML, CuL” value in data set [6] is 23.11.
